Results reported in patent US9061003B2, “Therapeutic or preventive agent for diabetes” (NITTA GELATIN INC., priority 2011, dated 2015).
Where two headings read alike, the source gives them in different places. Square brackets hold non-standard residues; d marks the D form. Peptide text beside a SMILES is read from it. Hyp = O=C(O)[C@@H]1C[C@@H](O)CN1

How the values were obtained:
[1] = system: Human-derived intestinal tract L cells (NCI-H716 cell); format: cell-based; details: for GLP-1 secretion accelerating percentage: peptides, 5 mM sample, 1 hour, NCI-H716 cells, Blank = 100%, n = 4; for GLP-1 secretion accelerating activity (in words): discussion of results
Protocol: Human-derived intestinal tract L cells (NCI-H716 cell: manufactured by ATCC) were inoculated at 5×10^5 cells/mL×200 μL (1×10^5 cells/well) in a RPIM medium containing 10% FBS (manufactured by ATCC) on a Pre-coated poly-L-lysin plate (96 wells plate) and cultured for 2 days. After confirming that the cells were adhered to the plate, the medium was replaced by a test medium (146 mM NaCl, 5 mM KCl, 1.5 mM CaCl2, 1 mM MgSO4, 20 mM HEPES, 5.6 mM glucose, 2 mg/mL BSA) and a sample was added at a final concentration of 5 mM. A culture supernatant after 1 hour was 30-fold diluted with PBS, and tested with GLP-1 ELISA kit (manufactured by Levis) according to the protocol.
Based on GLP-1 secretion in the case not added with the sample (Blank) as 100%, a GLP-1 secretion accelerating percentage in the fraction added with 5 mM sample was calculated.

[2] = Intestinal tract absorptivity (intragastric administration, portal vein perfusate, LC/MS/MS); format: in vivo, Wistar rats; details: rat, po
Protocol: Male Wistar rats (170 g) were fasted overnight before subjected to the experiment. As a test sample, 215 nmol/10 mL of each of the peptides was used, and intragastrically administered. As a test method, heart and portal vein of each rat were attached with a cannula to make one-directional perfusion. […] To a perfusion sample solution (5.0 mL) collected from the portal vein was added 0.5 mL of 30% sulfosalicylic acid and stirred vigorously, and left overnight in a refrigerator. This sample was centrifuged at 3000 rpm for 10 minutes, to remove protein. For the supernatant of centrifugation, an amount of hydroxyproline in 0.5 mL was colorimetrically quantified, and an amount of free-type Hyp was obtained. […] After concentrating and drying the resultant in an evaporator, and removing the hydrochloric acid, the solid was dissolved in 5 mL of distilled water, and several drops of a saturated lithium hydroxide solution was added thereto to adjust pH at 5 to 7, and the volume was fixed at 10 mL. […] The value obtained by subtracting the amount of free-type Hyp before hydrolysis from the total Hyp amount after hydrolysis is an amount of peptide-form Hyp. From this amount of peptide-form Hyp, a quantitative value of absorption of each peptide into rat portal vein perfusate in the test sample was first determined. The colorimetric quantification of the amount of hydroxyproline was conducted by a […] and Shill method, and was concretely conducted in the following manner. That is, 2 mL of 2-propanol was added to 2 mL of a sample solution and stirred thoroughly. Then, 0.5 mL of a chloramine T liquid being an oxidizing agent was added to the mixture, and left still for accurately 4 minutes, and then cooled on ice. Then, 5 mL of a p-dimethylaminobenzaldehyde solution was added to the mixture and stirred thoroughly, and then heated in a boiling water bath for accurately 2 minutes. Then, the reaction was immediately cooled on ice, and left still for 1 hour, and then colorimetrically quantified at a wavelength of 575 nm. […] Further, the p-dimethylaminobenzaldehyde solution (Erich solution) was prepared by dissolving 20 g of p-dimethylaminobenzaldehyde powder in 22 mL of concentrated hydrochloric acid under heating in boiling water, and immediately cooling the same in ice water, and adding 122 mL of 2-propanol and dissolving it under stirring. Next, peptides collected in the rat portal vein perfusate, namely the aforementioned intestinally absorbed peptides were identified and quantified by the following HPLC analysis and mass spectrometry (LC/MS/MS). Analysis of the peptide in the perfusate was conducted by reverse-phase HPLC analysis. As a HPLC device, an LCSS-905 system manufactured by JASCO Corporation, consisting of a liquid feeding pump, a degasser, an automatic sampler, a column open, a UV spectrophotometer, a printer, and a system controller was used. As a reverse-phase column, Nova Pak C18 (3.9×150 mm) was used. […] As a HPLC device, U980HPLC (manufactured by JASCO Corporation) attached with an ODS(C18) column (Mightysil RP-18, 2×250 mm, manufactured by Kanto Chemical Co., Ltd.) was used. As a mobile phase solvent, a 0.2% formic acid-containing acetonitrile-water system was used, and the concentration of acetonitrile was increased from 0% to 40% over 40 minutes by a linear gradient, and it was washed with 100% acetonitrile for 10 minutes. […] MS analysis was conducted by a MS/MS system using a Quattro LC mass spectrophotometer (Micromass, Manchester, UK) according to a four-channel Multiple Reaction Monitoring method. To be more specific, the elute from HPLC was monitored by m/z being [M+H]^+ and by m/z of its fragment ion species. At this time, [M+H]^+ m/z was monitored using 302.2>189.4 for LOG; 286.1>189.3 for POG; 187.1>70.3 for PA; 261.1>243.4 for EO, 245.1>132.3 for LO; 245.2>132.1 for IO; 318.1>225.4 for EOG; 276.1>189.4 for SOG; 219.1>132.2 for SO; and 260.1>189.4 for AOG.

[3] = target: T1, DPPIV enzyme; human recombinant (Homo sapiens, UniProt P27487); experiment: DPPIV inhibitory activity (DPPIV Drug Discovery Kit-AK-499, H-Gly-Pro-AMC substrate); format: biochemical; details: for IC50 (concentration at which 50% of DPPIV activity was inhibited): peptides, human recombinant DPPIV; for DPPIV inhibitory activity (in words): discussion of results
T1 construct: purchased BIOMOL E434-9090 (kit AK-499)
Protocol: DPPIV inhibitory activity was determined by using a DPPIV inhibitory activity measuring kit “DPPIV Drug Discovery Kit-AK-499” (manufactured by BIOMOL). […] Inhibitory activity was evaluated by the concentration at which 50% of DPPIV activity was inhibited.

[4] = system: ob/ob mice; experiment: Evaluation of sugar tolerance by glucose loading test; format: in vivo; details: 0.85 g/kg orally 30 minutes before oral glucose 2 g/kg
Protocol: Six-weeks old male ob/ob mice (Japan SLC) were allowed to acclimate by feeding with normal diet (MF, Oriental Yeast) for 7 days, and subjected to the experiment. After fasting the same mice overnight (16 hours), each collagen peptide (0.85 g/kg) or casein (0.85 g/kg, manufactured by DMV, Netherlands) was orally administered, and glucose (2 g/kg) was orally administered after 30 minutes, and the effect on the sugar tolerance was examined by a glucose loading test (2 g/kg). After 0, 15, 30, 60 and 120 minutes, the blood sugar level was measured by using a blood glucose measuring apparatus (Glutest ace R, SANWA KAGAKU KENKYUSHO CO., LTD.), and AUC0-120 min was calculated, and evaluated.

[5] = male, Wistar, in vivo, 215 nmol/10 mL
[6] = male Wistar rats, 215 nmol/10 mL intragastrically, portal vein perfusate, read-out: Amount of peptide identified after absorption

T1 sequence (P27487 whole entry): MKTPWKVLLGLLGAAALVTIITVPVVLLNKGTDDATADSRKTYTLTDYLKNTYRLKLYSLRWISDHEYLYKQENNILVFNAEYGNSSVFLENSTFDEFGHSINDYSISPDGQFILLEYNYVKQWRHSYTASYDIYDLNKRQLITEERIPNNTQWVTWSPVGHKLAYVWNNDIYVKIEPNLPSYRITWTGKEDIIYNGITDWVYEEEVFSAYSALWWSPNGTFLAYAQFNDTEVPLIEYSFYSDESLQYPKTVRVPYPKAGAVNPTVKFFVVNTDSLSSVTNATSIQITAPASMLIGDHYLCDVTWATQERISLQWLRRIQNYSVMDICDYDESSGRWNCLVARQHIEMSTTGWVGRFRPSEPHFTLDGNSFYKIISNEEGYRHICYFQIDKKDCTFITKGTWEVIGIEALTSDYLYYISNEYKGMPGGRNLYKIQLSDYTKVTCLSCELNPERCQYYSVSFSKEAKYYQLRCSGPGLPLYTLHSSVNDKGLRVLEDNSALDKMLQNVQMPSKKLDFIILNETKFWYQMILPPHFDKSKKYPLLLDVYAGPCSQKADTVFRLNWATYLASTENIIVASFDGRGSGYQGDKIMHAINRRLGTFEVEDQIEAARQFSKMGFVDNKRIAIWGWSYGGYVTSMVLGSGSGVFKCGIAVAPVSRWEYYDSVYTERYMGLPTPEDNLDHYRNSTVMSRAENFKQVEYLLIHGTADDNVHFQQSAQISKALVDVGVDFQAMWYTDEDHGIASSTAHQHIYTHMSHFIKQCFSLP

level at time molar [2, 5]	IC50 (concentration at which 50% of DPPIV activity was inhibited) [3]	level at time molar [2, 6]	DPPIV inhibitory activity (in words) [3]	Compound	GLP-1 secretion accelerating percentage [1]	GLP-1 secretion accelerating activity (in words) [1]	AUC0-120 min × 1000 (blood sugar level) [4]
–	6000 µM	66.7 ± 1.3 µM	high DPPIV inhibitory activity	C[C@H](N)C(=O)N1C[C@H](O)C[C@H]1C(=O)NCC(=O)O [AOG, Ala-Hyp-Gly] (H-Ala-[Hyp]-Gly-OH; N-terminus and C-terminus assumed)	120 ± 5%	have GLP-1 secretion accelerating activity	–
156 ± 1.3 µM	1500 µM	–	high DPPIV inhibitory activity	N[C@@H](CCC(=O)O)C(=O)N1C[C@H](O)C[C@H]1C(=O)O [EO, Glu-Hyp] (H-Glu-[Hyp]-OH; N-terminus and C-terminus assumed)	148 ± 66%	have GLP-1 secretion accelerating activity	–
110 ± 0.9 µM	2900 µM	–	high DPPIV inhibitory activity	N[C@@H](CCC(=O)O)C(=O)N1C[C@H](O)C[C@H]1C(=O)NCC(=O)O [EOG, Glu-Hyp-Gly] (H-Glu-[Hyp]-Gly-OH; N-terminus and C-terminus assumed)	307 ± 84%	have GLP-1 secretion accelerating activity	–
163 ± 1.9 µM	2900 µM	–	high DPPIV inhibitory activity	CC[C@H](C)[C@H](N)C(=O)N1C[C@H](O)C[C@H]1C(=O)O [IO, Ile-Hyp] (H-Ile-[Hyp]-OH; N-terminus and C-terminus assumed)	–	–	–
167.7 ± 0.9 µM	1700 µM	–	high DPPIV inhibitory activity	CC(C)C[C@H](N)C(=O)N1C[C@H](O)C[C@H]1C(=O)O [LO, Leu-Hyp] (H-Leu-[Hyp]-OH; N-terminus and C-terminus assumed)	–	–	–
–	280 µM	116.1 ± 1 µM	high DPPIV inhibitory activity	CC(C)C[C@H](N)C(=O)N1C[C@H](O)C[C@H]1C(=O)NCC(=O)O [LOG, Leu-Hyp-Gly] (H-Leu-[Hyp]-Gly-OH; N-terminus and C-terminus assumed)	326 ± 17%	have GLP-1 secretion accelerating activity	–
152.6 ± 1.1 µM	1000 µM	–	high DPPIV inhibitory activity	C[C@H](NC(=O)[C@@H]1CCCN1)C(=O)O [PA, Pro-Ala] (H-Pro-Ala-OH; N-terminus and C-terminus assumed)	133 ± 85%	have GLP-1 secretion accelerating activity	–
105 ± 1.3 µM	>10000 µM	–	–	C[C@H](NC(=O)[C@@H]1CCCN1)C(=O)NCC(=O)O [PAG, reference compound] (H-Pro-Ala-Gly-OH; N-terminus and C-terminus assumed)	–	–	–
–	600 µM	129 ± 1 µM	high DPPIV inhibitory activity	O=C(O)CNC(=O)[C@@H]1C[C@@H](O)CN1C(=O)[C@@H]1CCCN1 [POG, Pro-Hyp-Gly] (H-Pro-[Hyp]-Gly-OH; N-terminus and C-terminus assumed)	–	–	–
116.1 ± 0.9 µM	3600 µM	–	high DPPIV inhibitory activity	N[C@@H](CO)C(=O)N1C[C@H](O)C[C@H]1C(=O)O [SO, Ser-Hyp] (H-Ser-[Hyp]-OH; N-terminus and C-terminus assumed)	161 ± 37%	have GLP-1 secretion accelerating activity	–
103.2 ± 1 µM	3000 µM	–	high DPPIV inhibitory activity	N[C@@H](CO)C(=O)N1C[C@H](O)C[C@H]1C(=O)NCC(=O)O [SOG, Ser-Hyp-Gly] (H-Ser-[Hyp]-Gly-OH; N-terminus and C-terminus assumed)	–	–	–
–	–	–	–	Casein	–	–	40.0 ± 2.0 min mg/dL
–	–	–	have DPPIV inhibitory activity	Hyp-Gly [OG]	152 ± 22%	have GLP-1 secretion accelerating activity	–
–	–	–	have DPPIV inhibitory activity	Pro-Gly [PG]	168 ± 15%	have GLP-1 secretion accelerating activity	–
–	–	–	have DPPIV inhibitory activity	Pro-Hyp [PO]	154 ± 44%	have GLP-1 secretion accelerating activity	–
–	–	–	have DPPIV inhibitory activity	Pro-Pro [PP]	167 ± 53%	have GLP-1 secretion accelerating activity	–

Compound	level at time molar [2, 5]	IC50 (concentration at which 50% of DPPIV activity was inhibited) [3]	level at time molar [2, 6]	DPPIV inhibitory activity (in words) [3]	GLP-1 secretion accelerating percentage [1]	GLP-1 secretion accelerating activity (in words) [1]	AUC0-120 min × 1000 (blood sugar level) [4]
C[C@H](N)C(=O)N1C[C@H](O)C[C@H]1C(=O)O [AO, Ala-Hyp] (H-Ala-[Hyp]-OH; N-terminus and C-terminus assumed)	71 ± 0.9 µM	>10000 µM	–	–	262 ± 71%	–	–
NCC(=O)N1CCC[C@H]1C(=O)N1C[C@H](O)C[C@H]1C(=O)O [GPO, Gly-Pro-Hyp] (H-Gly-Pro-[Hyp]-OH)	–	>10000 µM	2.2 µM	–	278 ± 60%	–	–
